Assay results taken from article PMC9953224, “Pharmacokinetic Evaluation of New Drugs Using a Multi-Labelling Approach and PET Imaging: Application to a Drug Candidate with Potential Application in Neuromuscular Disorders” (Biomedicines, 2023).

Assays:
[1] = Pharmacokinetics from metabolite-corrected arterial plasma TACs after intravenous administration; assay type: in vivo, Sprague Dawley Rats
Protocol: (§1) Anaesthesia was induced with 5% isoflurane (IsoFlo®, Abbott Laboratories, Abbott Park, IL, USA) and maintained by 2% of isoflurane in 100% O2. During the experiment, rats were kept normothermic using a heating blanket (Homeothermic Blanket Control Unit; Bruker). The rat was positioned in supine position on an operating table and the two distal hind limbs were fixed forming an approximately 30° angle with the horizontal plane. The surgical region was scrubbed using Betadine, starting in the centre, and making a circular sweep outward. A skin incision was made in the femoral region. Soft tissue was dissected to expose the femoral neurovascular bundle, consisting of femoral vein, artery, and nerve. Fine tip forceps were placed between the artery, vein and nerve and were slowly opened to separate the vessels, exposing an approximately 1 cm length section of artery/vein. The vena profunda femoris was sutured to avoid retrograde bleeding via this vessel, and the sapheno-femoral junction was cauterized. A few millimetres from venatomy, a vascular clip was inserted in the direction of the catheter (to control the flow) and a suture was applied in the opposite direction (to avoid retrograde bleeding). The same operation was carried out both on the femoral vein and femoral artery. An appropriate syringe filled with 50 U/mL Heparin/physiologic saline solution was fixed at the terminus of the catheters and these were filled with heparinized saline solution. On the upper half of the vessel circumference, at a 45° angle, an incision was made and the catheter (fine bore polythene tubing: ID 0.58 mm, OD 0.98 mm) was inserted through the venotomy and advanced to the vascular clip. The vascular clip was then removed, and the catheter advanced distally towards the level of the inguinal ligament. The catheter was finally secured to the femoral vein/artery proximally and distally with 2 single knots using 4–0 braided silk suture. The catheters were connected to an in-house developed system composed by a peristaltic pump and gamma-radiation coincidence detector (Bioscan, B-FC-4100). The femoral artery catheter, the gamma detector, the peristaltic pump, and the femoral vein catheter were thus connected in series, to enable the extracorporeal circulation of blood (flow 150 μL/s from femoral artery to femoral vein) and continuous measurement of radioactivity in the blood (Figure 1).
(§2) The labelled compounds were administrated two different ways: (i) intravenous bolus infusion (ca. 37 MBq in 300 μL of saline solution was injected through the femoral vein catheter) and (ii) oral bolus administration. For oral administration, animals were fasted for 5 h. The radioactive dose (ca. 74 MBq in 300 μL of saline solution) was administered using flexible 20-gauge disposable flexible PTFE feeding needles (Fine Science Tools, F.S.T.) and a small animal Laryngoscope (Penn-Century, Model LS-2) for the correct visualization of the oesophagus. The study was conducted under no carrier added (NCA, dose adjusted to 1 μg/Kg) and carrier added (CA, dose adjusted to 5 mg/Kg) conditions. In all cases, data were imported in real time to an excel sheet using PLX-DAX add-on for Microsoft Excel (measured in volts per second).
(§3) Arterial blood samples (1 per animal) were withdrawn (see Figure 1) from the femoral artery catheter and introduced into a capillary (Microhaematocrit capillaries 75 × 1.55, Nahita). Samples were centrifuged at 11,000× g […] for 10 min and the haematocrit was determined. A second blood sample was withdrawn and the amount of radioactivity of a fixed volume (10 µL) was measured in an automatic gamma counter (2470 Wizard, PerkinElmer) to determine Cb (concentration of radioactivity in blood) and convert data imported with PLX-DAX (Volts per seconds) into Bq/s using a previously determined calibration curve. Values were then expressed as percentage of injected dose per gram of blood (% ID/g). […]

[2] = Pharmacokinetics from metabolite-corrected arterial plasma TACs after oral administration; assay type: in vivo, Sprague Dawley Rats
Protocol: as §1, §2, §3

[3] = PET biodistribution after intravenous administration; assay type: in vivo, rats; conditions: 1 µg/Kg
Protocol: Rats were anesthetized by inhalation of 5% isoflurane (IsoFlo®, Abbott Laboratories, Abbott Park, IL, USA) in pure O2 and maintained by 1.5–2% isoflurane in 100% O2. During imaging, rats were kept normothermic using a heating blanket (Homeothermic Blanket Control Unit; Bruker). For intravenous administration, once the animal was under anaesthesia, one of the lateral tail veins was catheterized with a 24-gauge catheter (Introcan Certo®, Bbraun) and [^11C]AHK2.1 or [^11C]AHK2.2 was injected using saline solution as the vehicle (n = 3 for each radiolabelled compound, 26 ± 5 MBq; dose adjusted to 1 µg/Kg) concomitantly with the start of a PET dynamic acquisition. Whole body dynamic images were acquired in 4 bed positions (21 frames: 5 × 5 s per bed, 5 × 30 s per bed, 5 × 60 s per bed, 6 × 120 s per bed; total acquisition time = 79.6 min) in the 400–700 keV energetic window using an eXploreVista-CT small animal PET-CT system (GE Healthcare, Waukesha, WI, USA). After each PET scan, CT acquisitions were also performed (140 µA intensity, 40 kV voltage) to provide anatomical information of each animal as well as the attenuation map for the later reconstruction of the PET images. […] After reconstruction, PET-CT images of the same animal were co-registered and analysed using PMOD image processing tool (PMOD Technologies Ltd., Zürich, Switzerland). […]

[4] = target: T1, FKBP12 (Homo sapiens, UniProt P62942); experiment: Competitive ligand binding assay (FKBP/FRB NanoBiT luminescence protein complementation) in HEK293 cells; assay type: cell-based; conditions: rapamycin 30 nM
T1 construct: host or cells: HEK293
T1 sequence (P62942 whole entry): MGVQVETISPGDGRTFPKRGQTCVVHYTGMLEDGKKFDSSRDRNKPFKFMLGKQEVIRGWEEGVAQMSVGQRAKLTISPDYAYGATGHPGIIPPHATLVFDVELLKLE
Protocol: Briefly, HEK293 (ATCC) cells were transfected with FKBP/FRB NanoBiT Control Pair (Promega, Madison, WI, USA) and kinetic measurements were performed 24 h after transfection with Nano-Glo Live Cell Reagent (Promega), as described by the manufacturer. A total of 30 nM rapamycin (Sigma-Aldrich, Madrid, Spain) and AHK2 (1 μM–10 mM) was sequentially added and each effect was recorded for 10 min. Specific activity was normalized to vehicle, and IC50 was calculated using GraphPad Prism by fitting the data to a four-parameter logistic curve.

Row | Cp/Cb ratio (radioactivity in plasma / blood) ([1]; arterial blood, rat) | percentage of radioactivity in plasma ([1]; from Cp/Cb and haematocrit 0.44 ± 0.04) | Hill function parameter d (initial level of parent fraction) ([1]; intravenous) | Hill function parameter a (plateau of parent fraction in plasma) ([1]; intravenous, 1 µg/Kg) | Hill function parameter a (plateau of parent fraction in plasma) ([1]; intravenous, 5 mg/Kg) | Hill function parameter d (initial level of parent fraction) [2] | Hill function parameter a (plateau of parent fraction in plasma) ([2]; 1 µg/Kg) | Hill function parameter a (plateau of parent fraction in plasma) ([2]; 5 mg/Kg) | induction of FKBP12/FRB dimerization (luminescence) [4] | Compound | biodistribution of radioactivity in dynamic PET images [3]
1 | 1.44 ± 0.2 | ca. 81% | 1 | 0.075 | 0.29 | 1 | 0.10 | 0.13 | – | COc1ccc(SCc2cn(CCN(C)[11CH3])nn2)cc1 [[^11C]AHK2.1] | accumulation in the gastrointestinal tract, the kidneys and the bladder
2 | – | – | – | – | – | – | – | – | – | CN(C)CCn1cc(CSc2ccc(O[11CH3])cc2)nn1 [[^11C]AHK2.2] | rapid accumulation of radioactivity in the kidneys and elimination via urine
3 | – | – | – | – | – | – | – | – | induced | CO[C@H]1C[C@@H]2CC[C@@H](C)[C@@](O)(O2)C(=O)C(=O)N2CCCC[C@H]2C(=O)O[C@H]([C@H](C)C[C@@H]2CC[C@@H](O)[C@H](OC)C2)CC(=O)[C@H](C)/C=C(\C)[C@@H](O)[C@@H](OC)C(=O)[C@H](C)C[C@H](C)/C=C/C=C/C=C/1C [rapamycin, reference compound] | –
